{"source": "ChEMBL document CHEMBL3244333", "about": "“2-Acetylpyridine thiosemicarbazones. 2. N4,N4-Disubstituted derivatives as potential antimalarial agents” (J Med Chem, 1979)", "key": {"Plasmodium berghei [1]": {"tested_on": "Plasmodium berghei", "experiment": "Antimalarial activity against Plasmodium berghei KBG 173 infected in mouse assessed as increase of mean survival time at 160 mg/kg", "format": "functional"}, "Mus musculus [2]": {"tested_on": "Mus musculus", "experiment": "Toxicity in Plasmodium berghei KBG 173 infected mouse at 640 mg/kg", "format": "organism-based", "design": "dose 640 mg/kg", "details": "in vivo"}, "Plasmodium berghei [3]": {"tested_on": "Plasmodium berghei", "experiment": "Antimalarial activity against Plasmodium berghei KBG 173 infected in mouse assessed as increase of mean survival time at 80 mg/kg", "format": "functional"}, "Plasmodium berghei [4]": {"tested_on": "Plasmodium berghei", "experiment": "Antimalarial activity against Plasmodium berghei KBG 173 infected in mouse assessed as increase of mean survival time at 320 mg/kg", "format": "functional"}, "Plasmodium berghei [5]": {"tested_on": "Plasmodium berghei", "experiment": "Antimalarial activity against Plasmodium berghei KBG 173 infected in mouse assessed as cured animal from parasite infection at 80 mg/kg", "format": "functional, organism-based", "design": "dose 80 mg/kg"}, "Plasmodium berghei [6]": {"tested_on": "Plasmodium berghei", "experiment": "Antimalarial activity against Plasmodium berghei KBG 173 infected in mouse assessed as increase of mean survival time at 640 mg/kg", "format": "functional"}, "Plasmodium berghei [7]": {"tested_on": "Plasmodium berghei", "experiment": "Antimalarial activity against Plasmodium berghei KBG 173 infected in mouse assessed as increase of mean survival time at 40 mg/kg", "format": "functional"}, "Mus musculus [8]": {"tested_on": "Mus musculus", "experiment": "Toxicity in Plasmodium berghei KBG 173 infected mouse at 320 mg/kg", "format": "organism-based", "design": "dose 320 mg/kg", "details": "in vivo"}, "Mus musculus [9]": {"tested_on": "Mus musculus", "experiment": "Toxicity in Plasmodium berghei KBG 173 infected mouse at 160 mg/kg", "format": "organism-based", "design": "dose 160 mg/kg", "details": "in vivo"}, "Plasmodium berghei [10]": {"tested_on": "Plasmodium berghei", "experiment": "Antimalarial activity against Plasmodium berghei KBG 173 infected in mouse assessed as cured animal from parasite infection at 160 mg/kg", "format": "functional, organism-based", "design": "dose 160 mg/kg"}, "Plasmodium berghei [11]": {"tested_on": "Plasmodium berghei", "experiment": "Antimalarial activity against Plasmodium berghei KBG 173 infected in mouse assessed as cured animal from parasite infection at 640 mg/kg", "format": "functional, organism-based", "design": "dose 640 mg/kg"}, "Plasmodium berghei [12]": {"tested_on": "Plasmodium berghei", "experiment": "Antimalarial activity against Plasmodium berghei KBG 173 infected in mouse assessed as cured animal from parasite infection at 320 mg/kg", "format": "functional, organism-based", "design": "dose 320 mg/kg"}, "Mus musculus [13]": {"tested_on": "Mus musculus", "experiment": "Toxicity in Plasmodium berghei KBG 173 infected mouse at 80 mg/kg", "format": "organism-based", "design": "dose 80 mg/kg", "details": "in vivo"}, "Mus musculus [14]": {"tested_on": "Mus musculus", "experiment": "Toxicity in Plasmodium berghei KBG 173 infected mouse at 40 mg/kg", "format": "organism-based", "design": "dose 40 mg/kg", "details": "in vivo"}, "Plasmodium berghei [15]": {"tested_on": "Plasmodium berghei", "experiment": "Antimalarial activity against Plasmodium berghei KBG 173 infected in mouse assessed as cured animal from parasite infection at 40 mg/kg", "format": "functional, organism-based", "design": "dose 40 mg/kg"}}, "note": "Calls of active or inactive are those of the source. The rule behind the calls is not given here.", "data": [{"smiles": "CCCCN(C)C(=S)N/N=C(/C)c1ccccn1", "values": [{"measurement": "Survival", "setting": "Plasmodium berghei [1]", "value": 6.9, "unit": "days"}, {"measurement": "Activity", "setting": "Mus musculus [2]", "value": "Toxic"}, {"measurement": "Survival", "setting": "Plasmodium berghei [3]", "value": 8.1, "unit": "days"}, {"measurement": "Survival", "setting": "Plasmodium berghei [4]", "value": 0, "unit": "days"}, {"measurement": "Activity", "setting": "Plasmodium berghei [5]", "value": "Active"}, {"measurement": "Survival", "setting": "Plasmodium berghei [6]", "value": 0, "unit": "days"}, {"measurement": "Survival", "setting": "Plasmodium berghei [7]", "value": 5.9, "unit": "days"}, {"measurement": "Activity", "setting": "Mus musculus [8]", "value": "Toxic"}, {"measurement": "Activity", "setting": "Mus musculus [9]", "value": "Toxic"}, {"measurement": "Activity", "setting": "Plasmodium berghei [10]", "value": "Active"}, {"measurement": "Activity", "setting": "Plasmodium berghei [11]", "value": "Active"}, {"measurement": "Activity", "setting": "Plasmodium berghei [12]", "value": "Active"}]}, {"smiles": "C/C(=N/NC(=S)N(C)C1CCCC1)c1ccccn1", "values": [{"measurement": "Activity", "setting": "Mus musculus [2]", "value": "Toxic"}, {"measurement": "Survival", "setting": "Plasmodium berghei [4]", "value": 6, "unit": "days"}, {"measurement": "Activity", "setting": "Plasmodium berghei [5]", "value": "Active"}, {"measurement": "Survival", "setting": "Plasmodium berghei [6]", "value": 0, "unit": "days"}, {"measurement": "Survival", "setting": "Plasmodium berghei [7]", "value": 1.5, "unit": "days"}, {"measurement": "Activity", "setting": "Mus musculus [8]", "value": "Toxic"}, {"measurement": "Activity", "setting": "Plasmodium berghei [10]", "value": "Active"}, {"measurement": "Activity", "setting": "Plasmodium berghei [11]", "value": "Active"}, {"measurement": "Activity", "setting": "Plasmodium berghei [12]", "value": "Active"}]}, {"smiles": "C/C(=N/NC(=S)N(C)Cc1ccccc1)c1ccccn1", "values": [{"measurement": "Activity", "setting": "Mus musculus [2]", "value": "Toxic"}, {"measurement": "Activity", "setting": "Mus musculus [13]", "value": "Toxic"}, {"measurement": "Activity", "setting": "Plasmodium berghei [5]", "value": "Active"}, {"measurement": "Survival", "setting": "Plasmodium berghei [7]", "value": 4, "unit": "days"}, {"measurement": "Activity", "setting": "Mus musculus [8]", "value": "Toxic"}, {"measurement": "Activity", "setting": "Mus musculus [9]", "value": "Toxic"}, {"measurement": "Activity", "setting": "Plasmodium berghei [10]", "value": "Active"}, {"measurement": "Activity", "setting": "Plasmodium berghei [11]", "value": "Active"}, {"measurement": "Activity", "setting": "Plasmodium berghei [12]", "value": "Active"}]}, {"smiles": "C/C(=N/NC(=S)N1C(C)CCC1C)c1ccccn1", "note": "(stereo not drawn)", "values": [{"measurement": "Activity", "setting": "Mus musculus [2]", "value": "Toxic"}, {"measurement": "Survival", "setting": "Plasmodium berghei [4]", "value": 0, "unit": "days"}, {"measurement": "Activity", "setting": "Plasmodium berghei [5]", "value": "Active"}, {"measurement": "Survival", "setting": "Plasmodium berghei [6]", "value": 0, "unit": "days"}, {"measurement": "Survival", "setting": "Plasmodium berghei [7]", "value": 4.7, "unit": "days"}, {"measurement": "Activity", "setting": "Mus musculus [8]", "value": "Toxic"}, {"measurement": "Activity", "setting": "Mus musculus [9]", "value": "Toxic"}, {"measurement": "Activity", "setting": "Plasmodium berghei [10]", "value": "Active"}, {"measurement": "Activity", "setting": "Plasmodium berghei [11]", "value": "Active"}, {"measurement": "Activity", "setting": "Plasmodium berghei [12]", "value": "Active"}]}, {"smiles": "C/C(=N/NC(=S)N(C)CCc1ccccn1)c1ccccn1", "values": [{"measurement": "Survival", "setting": "Plasmodium berghei [1]", "value": 0, "unit": "days"}, {"measurement": "Activity", "setting": "Mus musculus [2]", "value": "Toxic"}, {"measurement": "Activity", "setting": "Mus musculus [14]", "value": "Toxic"}, {"measurement": "Survival", "setting": "Plasmodium berghei [3]", "value": 3.3, "unit": "days"}, {"measurement": "Survival", "setting": "Plasmodium berghei [4]", "value": 6.7, "unit": "days"}, {"measurement": "Survival", "setting": "Plasmodium berghei [6]", "value": 0, "unit": "days"}, {"measurement": "Survival", "setting": "Plasmodium berghei [7]", "value": 1.7, "unit": "days"}, {"measurement": "Activity", "setting": "Mus musculus [8]", "value": "Toxic"}, {"measurement": "Activity", "setting": "Mus musculus [9]", "value": "Toxic"}, {"measurement": "Activity", "setting": "Plasmodium berghei [10]", "value": "Active"}, {"measurement": "Activity", "setting": "Plasmodium berghei [12]", "value": "Active"}]}, {"smiles": "CCN(CC)C(=S)N/N=C(/C)c1ccccn1", "values": [{"measurement": "Activity", "setting": "Mus musculus [2]", "value": "Toxic"}, {"measurement": "Activity", "setting": "Mus musculus [13]", "value": "Toxic"}, {"measurement": "Activity", "setting": "Plasmodium berghei [5]", "value": "Active"}, {"measurement": "Survival", "setting": "Plasmodium berghei [6]", "value": 0, "unit": "days"}, {"measurement": "Survival", "setting": "Plasmodium berghei [7]", "value": 7.2, "unit": "days"}, {"measurement": "Activity", "setting": "Mus musculus [9]", "value": "Toxic"}, {"measurement": "Activity", "setting": "Plasmodium berghei [10]", "value": "Active"}, {"measurement": "Activity", "setting": "Plasmodium berghei [15]", "value": "Active"}, {"measurement": "Activity", "setting": "Plasmodium berghei [11]", "value": "Active"}]}, {"smiles": "C/C(=N/NC(=S)N1CCN(c2ccccc2)CC1)c1ccccn1", "values": [{"measurement": "Activity", "setting": "Mus musculus [2]", "value": "Toxic"}, {"measurement": "Survival", "setting": "Plasmodium berghei [3]", "value": 11.7, "unit": "days"}, {"measurement": "Survival", "setting": "Plasmodium berghei [4]", "value": -0.1, "unit": "days"}, {"measurement": "Activity", "setting": "Plasmodium berghei [5]", "value": "Active"}, {"measurement": "Survival", "setting": "Plasmodium berghei [6]", "value": -0.4, "unit": "days"}, {"measurement": "Survival", "setting": "Plasmodium berghei [7]", "value": 7, "unit": "days"}, {"measurement": "Activity", "setting": "Mus musculus [8]", "value": "Toxic"}, {"measurement": "Activity", "setting": "Plasmodium berghei [10]", "value": "Active"}, {"measurement": "Activity", "setting": "Plasmodium berghei [15]", "value": "Active"}, {"measurement": "Activity", "setting": "Plasmodium berghei [11]", "value": "Active"}]}, {"smiles": "C/C(=N/NC(=S)N1CC(C)CC(C)C1)c1ccccn1", "note": "(stereo not drawn)", "values": [{"measurement": "Activity", "setting": "Mus musculus [2]", "value": "Toxic"}, {"measurement": "Survival", "setting": "Plasmodium berghei [4]", "value": 0, "unit": "days"}, {"measurement": "Activity", "setting": "Plasmodium berghei [5]", "value": "Active"}, {"measurement": "Survival", "setting": "Plasmodium berghei [6]", "value": -0.4, "unit": "days"}, {"measurement": "Survival", "setting": "Plasmodium berghei [7]", "value": 5.6, "unit": "days"}, {"measurement": "Activity", "setting": "Mus musculus [8]", "value": "Toxic"}, {"measurement": "Activity", "setting": "Plasmodium berghei [10]", "value": "Active"}, {"measurement": "Activity", "setting": "Plasmodium berghei [12]", "value": "Active"}]}]}
